Source: US11311485B2, “Self-assembled particles for targeted delivery of immunomodulators to treat autoimmunity and cancer” (UNIVERSITY OF MARYLAND, BALTIMORE COUNTY, priority 2018, dated 2022)

Experiment: Loading capacity of filomicelles (PEG PPS) with other immunosuppressives used in lupus
Format: physicochemical
Conditions: drug per mg of filomicelles, FIG. 10
Source text: Transmission electron microscopy (TEM) images of loaded and unloaded FMs show no difference in morphology or structure, as shown in FIG. 3.

loading into filomicelles (PEG-PPS): ~400 µg/mg
SMILES: Cn1cnc([N+](=O)[O-])c1Sc1ncnc2nc[nH]c12 [AZA, azathioprine]
